In PMC12383145, “Fluorescent Peptides Internalize HeLa Cells and Kill Multidrug-Resistant Clinical Bacterial Isolates” (Antibiotics, 2025):
Converted amounts (≈) assume the structure as drawn. “And” between values parts separate entries of the source, which are not always exact repeats. Equal values may be shown once. Read-outs that look alike come from different tables or passages of the source. Positions of bridges follow the written chain, without caps; N, C: chain ends. Non-standard residues stand in square brackets, D forms with d. Residues, ends and D or L forms follow the SMILES beside them. Chains are numbered I, II in the order given. *: point of attachment. RhodamineB = CCN(CC)c1ccc2c(-c3ccccc3C(=O)*)c3ccc(=[N+](CC)CC)cc-3oc2c1; hPhe = N[C@@H](CCc1ccccc1)C(=O)O; 2Abz = Nc1ccccc1C(=O)O; Ahx = NCCCCCC(=O)O

Assays:
Assay type in all cases: cell-based
[1] = MTT cytotoxicity assay in HeLa cells; details: human
Method: MTT assays were conducted in HeLa cells to evaluate the effect of fluorescent probe incorporation on the in vitro cytotoxic activity of the parent non-conjugated peptides. The cytotoxic effect of peptides 1, Abz-1 RhB-1, 2, and RhB-2 in HeLa cells was peptide concentration-dependent, with the highest anticancer activity observed at 200 µg/mL. Incorporation of 2-Abz and RhB at the N-terminal end reduced cytotoxic activity, while the binding of 2-Abz at the C-terminal end or FAM at the N-terminal end drastically diminished anticancer activity (Table 4).

HeLa cells [2] = experiment: Fluorescence confocal microscopy, colocalization analysis (ImageJ JaCoP); details: 2 h at IC50, colocalization with SMA antibody
Method: The possible cellular distribution of the peptides was determined by colocalization analysis of the Rhodamine B fluorescent signal, with fluorophores used to stain the nucleus (Hoechst 33342) and cytoplasm components (SMA antibody). ImageJ 1.54f analysis software and the JaCoP plugin were used to analyze signal colocalization.
HeLa cells (>70% confluence) were seeded on sterile round coverslips in 24-well plates with DMEM + 5% FBS and incubated at 37 °C, 5% CO2 for 24 h. After adhesion, the medium was replaced, and cells were treated with fluorescent peptides at their IC50 for 2 h. Then, cells were washed with PBS under constant stirring (3 × 10 min). Cellular fixation was performed using a solution containing 2% paraformaldehyde and 1% sucrose 100 mM in PBS for 30 min, followed by PBS washes (2 × 10 min). Permeabilization was carried out using a solution of 0.1% Triton X-100 and 20 mM glycine in PBS for 10 min, followed by two additional PBS washes. Blocking was performed with 1% BSA and 20 mM glycine in PBS for 10 min. […] For the fluorescence lecture, 5 µL of Fluoromount mounting medium was applied to the slide, and the coverslip containing the cells was inverted onto the medium. Slides were allowed to be dry-protected from light, and cells were visualized using a Leica DMi8 fluorescence confocal microscope. […]

HeLa cells [3] = experiment: Micrographs of cell morphology after peptide treatment; details: 100 µg/mL, 2 h, 37 °C
From the text: Despite these pronounced morphological alterations, there was no evidence of cell rupture, membrane disintegration, or the presence of cell fragments, indicating the absence of necrotic processes. […] Green arrows indicate normal morphologies, such as cytoplasmic elongations and polygonal shapes. Red arrows indicate morphological changes induced by the peptides, including cell rounding, shrinkage, and loss of cytoplasmic projections. Scale bar: µm. The control corresponds to untreated cells.

P. aeruginosa ATCC 27853 = details: P. aeruginosa ATCC 27853
Method: (§1) The minimum inhibitory concentration (MIC) of the peptides was determined by the broth microdilution technique, according to the Clinical and Laboratory Standards Institute (CLSI) guidelines, as previously described. Briefly, bacterial strains were incubated in BHI broth at 37 °C until they reached the exponential growth phase, and inocula were adjusted to 5 × 10^6 CFU/mL using calibration curves. Serial dilutions of the peptides to be evaluated in 96-well plates were made in 90 µL of Mueller Hinton broth at concentrations ranging from 200 to 6.25 µg/mL, and 10 µL of the inoculum adjusted to 5 × 10^6 CFU/mL was added. Finally, the plates were incubated at 37 °C for 24 h, and the absorbance at 620 nm was read. As a negative control, CMH, distilled water, and 10 µL of inoculum were used; for the positive control, vancomycin was used for Gram-positive strains and ciprofloxacin for Gram-negative strains at the MICs dictated by the CLSI; as a technical control, CMH with peptone water was used, and for the growth control, CMH was used with 10 µL of inoculum.
(§2) To determine the minimum bactericidal concentration (MBC), the 96-well plates where the MIC was determined were used as a starting point. From these, an aliquot of the controls and those wells where no apparent bacterial growth was observed were spotted onto trypticase soy agar plates. The plates were incubated at 37 °C for 24 h, and the reading was taken, identifying the lowest concentration of the peptide where there was no bacterial growth as the MBC.

E. coli ATCC 25922 = details: E. coli ATCC 25922
Method: as §1, §2

E. faecalis ATCC 29212 = details: E. faecalis ATCC 29212
Method: as §1, §2

[4] = system: K. pneumoniae ATCC 700603; details: K. pneumoniae ATCC 700603
Method: as §1, §2

S. aureus ATCC 25923 = details: S. aureus ATCC 25923
Method: as §1, §2

[5] = system: E. faecalis clinical isolate 82; details: E. faecalis clinical isolate 82
Method: (§3) E. coli isolates 1004 (susceptible), 129797 (resistant), and 301755 (MDR) were selected for evaluation. Isolate 1004 was sensitive to all antibiotics tested. […] These findings identify it as a multidrug-resistant (MDR) strain and an extended-spectrum beta-lactamase (ESBL)-producing bacterium. For S. aureus, isolates 109095, 117719, and 124653 were evaluated. All three were resistant to penicillin, indicating beta-lactamase production mediated by the blaZ gene. Studies have shown that up to 90% of S. aureus isolates worldwide are penicillin-resistant, which implies that this antibiotic is ineffective in infections caused by this pathogen. […] Isolate 124653 was resistant to penicillin, tetracycline, and erythromycin, with the latter belonging to the group of macrolides, antibiotics that inhibit protein synthesis through interaction with the 50S […] subunit. For E. faecalis three isolates were selected: strains 213 (sensitive to all the antibiotics tested), strain 82 (resistant to streptomycin), and strain 179 (resistant to gentamicin). These clinical isolates were selected to assess the antimicrobial activity of the peptide RWQWRWQWR and its analogues conjugated to fluorescent molecules in strains against strains with susceptibility profiles.
(§4) The analysis of synthesized peptides in ATCC reference strains and susceptible, resistant, and multidrug-resistant (MDR) clinical isolates was performed. The clinical isolates were obtained from the National Cancer Institute collection and were previously identified and antibiogrammed using the VITEK system. Additionally, the strains were characterized by MALDI-TOF. The strains were re-primed onto trypticase soy agar and subsequently preserved in Brain–Heart Infusion (BHI) broth containing 20% glycerol. For the MIC and MBC assays, the strains were reactivated and cultured in BHI until they reached their exponential growth phase.
as §1, §2

[6] = system: E. faecalis clinical isolate 213; details: E. faecalis clinical isolate 213
Method: as §3, §4, §1, §2

[7] = system: E. faecalis clinical isolate 179; details: E. faecalis clinical isolate 179
Method: as §3, §4, §1, §2

[8] = system: S. aureus clinical isolate 124653; details: S. aureus clinical isolate 124653
Method: as §3, §4, §1, §2

[9] = system: E. coli clinical isolate 1004 (susceptible); details: E. coli clinical isolate 1004
Method: as §3, §4, §1, §2

[10] = system: S. aureus clinical isolate 109095; details: S. aureus clinical isolate 109095
Method: as §3, §4, §1, §2

[11] = system: E. coli clinical isolate 301755 (MDR); details: E. coli clinical isolate 301755
Method: as §3, §4, §1, §2

[12] = system: E. coli clinical isolate 129797 (resistant); details: E. coli clinical isolate 129797
Method: as §3, §4, §1, §2

Hemolysis assay = experiment: Hemolysis assay
Method: Whole blood was collected into EDTA tubes and centrifuged at 2500 rpm for 10 min. The plasma and buffy coat were removed, and the erythrocytes were washed three times with 0.9% saline to yield a 4% cell suspension. In 96-well plates, 100 µL of peptide dilutions (6.25–200 µg/mL) were prepared in triplicate, and 100 µL of the erythrocyte suspension was added (final hematocrit 2%). Plates were incubated at 37 °C for 2 h, and then centrifuged again at 2500 rpm for 10 min. A 100 µL aliquot of the supernatant was transferred to a fresh plate, and absorbance was measured at 450 nm. Saline and 1× Triton X-100 served as the negative and positive controls, respectively. Hemolysis (%) was calculated as follows: %hemolysis=treatment absorbance−saline absorbance/1×triton absorbance−saline absorbance

[13] = system: clinical isolates of E. faecalis; details: stated for the E. faecalis clinical isolates together
Method: as §3, with “For E. faecalis three isolates were selected: strains 213 (sensitive to all the antibiotics tested), strain 82 (resistant to streptomycin), and strain 179 (resistant to gentamicin). These clinical isolates were selected to assess the antimicrobial activity of the peptide RWQWRWQWR and its analogues conjugated to fluorescent molecules in strains against strains with susceptibility profiles.” left out
The minimum inhibitory concentration (MIC) of the peptides was determined by the broth microdilution technique, according to the Clinical and Laboratory Standards Institute (CLSI) guidelines, as previously described. […] Serial dilutions of the peptides to be evaluated in 96-well plates were made in 90 µL of Mueller Hinton broth at concentrations ranging from 200 to 6.25 µg/mL, and 10 µL of the inoculum adjusted to 5 × 10^6 CFU/mL was added. Finally, the plates were incubated at 37 °C for 24 h, and the absorbance at 620 nm was read. […]

[14] = system: S. aureus clinical isolate 11719; details: S. aureus clinical isolate 11719

For CCN(CC)c1ccc2c(-c3ccccc3C(=O)N[C@@H](CCCNC(=N)N)C(=O)N[C@@H](CCCNC(=N)N)C(=O)N[C@@H](Cc3c[nH]c4ccccc34)C(=O)N[C@@H](CCC(N)=O)C(=O)N[C@@H](Cc3c[nH]c4ccccc34)C(=O)N[C@@H](CCCNC(=N)N)C(=O)N[C@@H](CCc3ccccc3)C(=O)N[C@@H](CCCCN)C(=O)N[C@@H](CCCCN)C(=O)N[C@@H](CC(C)C)C(=O)NCC(=O)NCCCC[C@H](NC(=O)CNC(=O)[C@H](CC(C)C)NC(=O)[C@H](CCCCN)NC(=O)[C@H](CCCCN)NC(=O)[C@H](CCc3ccccc3)NC(=O)[C@H](CCCNC(=N)N)NC(=O)[C@H](Cc3c[nH]c4ccccc34)NC(=O)[C@H](CCC(N)=O)NC(=O)[C@H](Cc3c[nH]c4ccccc34)NC(=O)[C@H](CCCNC(=N)N)NC(=O)[C@H](CCCNC(=N)N)NC(=O)c3ccccc3-c3c4ccc(=[N+](CC)CC)cc-4oc4cc(N(CC)CC)ccc34)C(=O)NCCCCCC(N)=O)c3ccc(=[N+](CC)CC)cc-3oc2c1 [RhB-2, (RhB-RRWQWR-hF-KKLG)2K-Ahx] (I: RhodamineB-RRWQWR[hPhe]KKLGK[Ahx]-NH2 / II: RhodamineB-RRWQWR[hPhe]KKLG; amide I:12-II:C), the IC50 [1] was 151 µg/mL and 35 µM, the cellular localization (HeLa cells [2]) was “internalized and distributed in the cytoplasm” and the morphological changes (HeLa cells [3]) was “appeared smaller, rounded, and contained vacuoles”.

For N=C(N)NCCC[C@H](NC(=O)[C@H](Cc1c[nH]c2ccccc12)NC(=O)[C@H](CCC(N)=O)NC(=O)[C@H](Cc1c[nH]c2ccccc12)NC(=O)[C@H](CCCNC(=N)N)NC(=O)[C@H](Cc1c[nH]c2ccccc12)NC(=O)[C@H](CCC(N)=O)NC(=O)[C@H](Cc1c[nH]c2ccccc12)NC(=O)[C@H](CCCNC(=N)N)NC(=O)c1ccccc1N)C(N)=O [Abz-1, (2-Abz)-RWQWRWQWR] (H-[2Abz]RWQWRWQWR-NH2), the IC50 ([1]; HeLa cells, MTT, read-out: Cytotoxic Activity (IC50)) was 140 µg/mL and 87 µM, the Minimal bactericidal concentration (MBC) (P. aeruginosa ATCC 27853) was greater than 125 µM and the Minimal inhibitory concentration (MIC) (P. aeruginosa ATCC 27853) was greater than 125 µM. The “Minimal bactericidal concentration (MBC)” value (E. coli ATCC 25922) was 125 µM (≈ 201 µg/mL), the “Minimal inhibitory concentration (MIC)” value (E. coli ATCC 25922) was 62 µM (≈ 99.6 µg/mL) and the Minimal bactericidal concentration (MBC) (E. faecalis ATCC 29212) was 62 µM (≈ 99.6 µg/mL). It also gave a Minimal inhibitory concentration (MIC) (E. faecalis ATCC 29212) of 62 µM (≈ 99.6 µg/mL), a Minimal bactericidal concentration (MBC) [4] greater than 125 µM and a Minimal inhibitory concentration (MIC) [4] greater than 125 µM. The “Minimal bactericidal concentration (MBC)” value (S. aureus ATCC 25923) was 31 µM (≈ 49.8 µg/mL), the “Minimal inhibitory concentration (MIC)” value (S. aureus ATCC 25923) was 16 µM (≈ 25.7 µg/mL) and the “Minimal bactericidal concentration (MBC)” value [5] was 62 µM (≈ 99.6 µg/mL). The “Minimal inhibitory concentration (MIC)” value [5] was 31 µM (≈ 49.8 µg/mL), the “Minimal bactericidal concentration (MBC)” value [6] was 62 µM (≈ 99.6 µg/mL) and the “Minimal inhibitory concentration (MIC)” value [6] was 31 µM (≈ 49.8 µg/mL). For the same compound, the “Minimal bactericidal concentration (MBC)” value [7] was 62 µM (≈ 99.6 µg/mL), the “Minimal inhibitory concentration (MIC)” value [7] was 31 µM (≈ 49.8 µg/mL) and the Minimal bactericidal concentration (MBC) [8] was greater than 125 µM. The Minimal inhibitory concentration (MIC) [8] was 125 µM (≈ 201 µg/mL), the Minimal bactericidal concentration (MBC) [9] was greater than 125 µM and the Minimal inhibitory concentration (MIC) [9] was greater than 125 µM. For the same compound, the Minimal bactericidal concentration (MBC) [10] was greater than 125 µM, the Minimal inhibitory concentration (MIC) [10] was 125 µM (≈ 201 µg/mL) and the Minimal bactericidal concentration (MBC) [11] was greater than 125 µM. It also gave a Minimal inhibitory concentration (MIC) [11] greater than 125 µM, a Minimal bactericidal concentration (MBC) [12] greater than 125 µM and a Minimal inhibitory concentration (MIC) [12] greater than 125 µM. It also gave a hemolysis at 2 h (Hemolysis assay; at 200 µg/mL (highest tested concentration), 2 h, 37 °C, read-out: hemolysis) of 13.4%, a hemolysis at 2 h (Hemolysis assay; at the lowest MIC concentration, read-out: Percentage of hemolysis) of 6.5% and a selectivity ratio at 2 h (Hemolysis assay; peptide concentration at 10% hemolysis / IC50 in HeLa cells, read-out: Selectivity index) of 0.7. For the same compound, the MIC [13] was 31 µM (≈ 49.8 µg/mL), the Minimal bactericidal concentration (MBC) [14] was greater than 125 µM and the Minimal inhibitory concentration (MIC) [14] was 125 µM (≈ 201 µg/mL).
